Laboratory results published in patent US6849656B1, “Indole-containing and combretastatin-related anti-mitotic and anti-tubulin polymerization agents” (Baylor University, priority 1999, dated 2005).
In brackets after ≈: the same amount, converted by molar mass. Read-outs that look alike come from different tables or passages of the source.

How the values were obtained:
purified tubulin [1] = settings: reported by Pettit and co-workers, cited from earlier work; for IC50: read-out: IC50 for inhibition of tubulin polymerization
NCI-H460 (Lung-NSC) [2] = settings: data from synthesis of phenstatin phosphate (Pettit); cited from earlier work
OVCAR-3 (Ovarian) [3] = settings: data from synthesis of phenstatin phosphate (Pettit); cited from earlier work
SF-295 (CNS) [4] = settings: data from synthesis of phenstatin phosphate (Pettit); cited from earlier work
KM20L2 (Colon) [5] = settings: data from synthesis of phenstatin phosphate (Pettit); cited from earlier work
purified tubulin [6] = tested on: T1, purified tubulin; test: Inhibition of tubulin polymerization assay; type: biochemical, bovine
T1 construct: other: at 4 pM
Experimental: IC50 values for tubulin polymerization were determined according to the procedure described in Bai et al. Purified tubulin is obtained from bovine brain cells as described in Hamel and Lin. Various amounts of inhibitor were preincubated for 15 minutes at 37° C. with purified tubulin. After the incubation period, the reaction was cooled and GTP was added to induce tubulin polymerization. Polymerization was then monitored in a Gilford spectrophotometer at 350 nm. The final reaction mixtures (0.25 ml) contained 1.5 mg/ml tubulin, 0.6 mg/ml microtubule-associated proteins (MAPs), 0.5 mM GTP, […], 4% DMSO and 0.1M 4-morpholineethanesulfonate buffer (MES, pH 6.4). IC50 is the amount of inhibitor needed to inhibit tubulin polymerization 50% with respect to the amount of […] that occurs in the absence of inhibitor.

BXPC-3 (Pancreas-a) = test: Growth inhibition of human cancer cell line BXPC-3; type: cell-based
Experimental: (§1) 3-(3′,4′,5′-Trimethoxybenzoyl)-2-(4′-methoxyphenyl)-6-methoxyindole was evaluated in terms of growth inhibitory activity against several human cancer cell lines, including pancreas, ovarian, CNS, lung-NSC, colon, and prostate lines. The assay used is described in Monks et al. Briefly, the cell suspensions, diluted according to the particular cell type and the expected target cell density (5,000-40,000 cells per well based on cell growth characteristics), were added by pipet (100 μl) to 96-well microtiter plates. Inoculates were allowed a preincubation time of24-28 hours at 37° C. for stabilization. Incubation with the inhibitor compounds lasted for 48 hours in 5% CO2 atmosphere and 100% humidity. Determination of cell growth was done by in situ fixation of cells, followed by staining with a protein-binding dye, sulforhodamine B (SRB), which binds to the basic amino acids of cellular macromolecules. The solubilized stain was measured spectrophotometrically. G150 is defined as the dosage required to inhibit tumor cell growth by 50%.

NCI-H460 (Lung-NSC) [7] = test: cells; type: cell-based
Experimental: as §1

DU-145 (Prostate) = test: Growth inhibition of human cancer cell line DU-145; type: cell-based
Experimental: as §1

OVCAR-3 (Ovarian) [8] = test: Growth inhibition of human cancer cell line OVCAR-3; type: cell-based
Experimental: as §1

SF-295 (CNS) [9] = test: Growth inhibition of human cancer cell line SF-295; type: cell-based
Experimental: as §1

KM20L2 (Colon) [10] = test: Growth inhibition of human cancer cell line KM20L2; type: cell-based
Experimental: as §1

P388 leukemia cells = test: Cytotoxic assay with P388 leukemia cells; type: cell-based
SK-N-SH (Neuroblast) = test: Growth inhibition of human cancer cell line SK-N-SH; type: cell-based; settings: Table I
SW1736 (Thyroid ca) = test: Growth inhibition of human cancer cell line SW1736; type: cell-based; settings: SW-1736, SW1736, Table I
FADU (Pharynx-sqam) = test: Growth inhibition of human cancer cell line FADU; type: cell-based; settings: Table I
[11] = read-out: IC50 for inhibition of tubulin polymerization

Question: With COc1ccc(/C=C\c2cc(OC)c(OC)c(OC)c2)cc1OP(=O)(O)O [Combretastatin A-4 Prodrug] as the molecule, how does the “inhibition of tubulin polymerization” value (purified tubulin [1]) read?
Answer: no inhibition

Question: What about the IC50 (purified tubulin [1]) of the same molecule?
Answer: > 80000 nM

Question: What about the GI50 (NCI-H460 (Lung-NSC) [2]) of the same molecule?
Answer: 0.029 µg/mL (≈ 0.0732 µM)

Question: What about the GI50 (OVCAR-3 (Ovarian) [3]) of the same molecule?
Answer: 0.023 µg/mL (≈ 0.058 µM)

Question: And the GI50 (SF-295 (CNS) [4])?
Answer: 0.036 µg/mL (≈ 0.0908 µM)

Question: And the GI50 (KM20L2 (Colon) [5])?
Answer: 0.34 µg/mL (≈ 0.858 µM)

Question: Which IC50 (purified tubulin [6]; read-out: 50% inhibition of the maximum tubulin assembly rate) does the source give for COc1ccc(/C=C\c2cc(OC)c(OC)c(OC)c2)cc1O [combretastatin A-4, reference compound] here?
Answer: […]

Question: For CCOP(=O)(Nc1cc(/C=C\c2cc(OC)c(OC)c(OC)c2)ccc1OC)OCC [Phosphoramidate Analog 10, (Z)-1-(3′-Diethylphosphoramidate-4′-methoxyphenyl)-2-(3″,4″,5″-trimethoxyphenyl)ethene], which “activity in inhibition of tubulin polymerization” value (purified tubulin [6]) is on record?
Answer: little if any activity

Question: And the GI50 (BXPC-3 (Pancreas-a); BXPC-3)?
Answer: 0.15 µg/mL (≈ 0.332 µM)

Question: And the LC50 (BXPC-3 (Pancreas-a); BXPC-3)?
Answer: >10 µg/mL

Question: What about the TGI (BXPC-3 (Pancreas-a); BXPC-3) of the same molecule?
Answer: 0.57 µg/mL (≈ 1.26 µM)

Question: And the GI50 (NCI-H460 (Lung-NSC) [7]; NCI-H460)?
Answer: 0.35 µg/mL (≈ 0.775 µM)

Question: What about the LC50 (NCI-H460 (Lung-NSC) [7]; NCI-H460) of the same molecule?
Answer: >10 µg/mL

Question: And the TGI (NCI-H460 (Lung-NSC) [7]; NCI-H460)?
Answer: >10 µg/mL

Question: What about the GI50 (DU-145 (Prostate); DU-145) of the same molecule?
Answer: 0.26 µg/mL (≈ 0.576 µM)

Question: And the LC50 (DU-145 (Prostate); DU-145)?
Answer: >10 µg/mL

Question: And the TGI (DU-145 (Prostate); DU-145)?
Answer: 0.26 µg/mL (≈ 0.576 µM)

Question: What about the GI50 (OVCAR-3 (Ovarian) [8]; OVCAR-3) of the same molecule?
Answer: 0.19 µg/mL (≈ 0.421 µM)

Question: What about the LC50 (OVCAR-3 (Ovarian) [8]; OVCAR-3) of the same molecule?
Answer: >10 µg/mL

Question: And the TGI (OVCAR-3 (Ovarian) [8]; OVCAR-3)?
Answer: 0.86 µg/mL (≈ 1.9 µM)

Question: And the GI50 (SF-295 (CNS) [9]; SF-295)?
Answer: 0.24 µg/mL (≈ 0.532 µM)

Question: What about the LC50 (SF-295 (CNS) [9]; SF-295) of the same molecule?
Answer: >10 µg/mL

Question: And the TGI (SF-295 (CNS) [9]; SF-295)?
Answer: >10 µg/mL

Question: And the GI50 (KM20L2 (Colon) [10]; KM20L2)?
Answer: 0.28 µg/mL (≈ 0.62 µM)

Question: What about the LC50 (KM20L2 (Colon) [10]; KM20L2) of the same molecule?
Answer: >10 µg/mL

Question: What about the TGI (KM20L2 (Colon) [10]; KM20L2) of the same molecule?
Answer: 0.61 µg/mL (≈ 1.35 µM)

Question: What about the GI50 (P388 leukemia cells; P388) of the same molecule?
Answer: 0.31 µg/mL (≈ 0.687 µM)

Question: Which “activity in inhibition of tubulin polymerization compared to phenstatin” value (purified tubulin [1]) does the source give for COc1ccc(C(=O)c2cc(OC)c(OC)c(OC)c2)cc1OP(=O)(O)O [Phenstatin Prodrug] here?
Answer: 40%

Question: And the IC50 (purified tubulin [1])?
Answer: 21000 ± 3000 nM

Question: And the GI50 (NCI-H460 (Lung-NSC) [2])?
Answer: 0.035 µg/mL (≈ 0.0879 µM)

Question: What about the GI50 (OVCAR-3 (Ovarian) [3]) of the same molecule?
Answer: 0.0025 µg/mL (≈ 0.00628 µM)

Question: What about the GI50 (SF-295 (CNS) [4]) of the same molecule?
Answer: 0.012 µg/mL (≈ 0.0301 µM)

Question: What about the GI50 (KM20L2 (Colon) [5]) of the same molecule?
Answer: 0.27 µg/mL (≈ 0.678 µM)

Question: With COc1ccc(-c2[nH]c3cc(OC)ccc3c2C(=O)c2cc(OC)c(OC)c(OC)c2)cc1 [Indole-based Ligand 33, 3-(3′,4′,5′-trimethoxybenzoyl)-2-(4′-methoxyphenyl)-6-methoxyindole] as the molecule, how does the GI50 (BXPC-3 (Pancreas-a); Homo sapiens, BXPC-3, 48 hours, SRB, read-out: GI50) read?
Answer: 0.002 µg/mL (≈ 0.00447 µM)

Question: What about the GI50 (NCI-H460 (Lung-NSC) [7]; Homo sapiens, NCI-H460, 48 hours, SRB, read-out: GI50) of the same molecule?
Answer: 0.0026 µg/mL (≈ 0.00581 µM)

Question: What about the GI50 (DU-145 (Prostate); Homo sapiens, DU-145, 48 hours, SRB, read-out: GI50) of the same molecule?
Answer: 0.0023 µg/mL (≈ 0.00514 µM)

Question: What about the GI50 (OVCAR-3 (Ovarian) [8]; Homo sapiens, OVCAR-3, 48 hours, SRB, read-out: GI50) of the same molecule?
Answer: 0.0024 µg/mL (≈ 0.00536 µM)

Question: What about the GI50 (SF-295 (CNS) [9]; Homo sapiens, SF-295, 48 hours, SRB, read-out: GI50) of the same molecule?
Answer: 0.0024 µg/mL (≈ 0.00536 µM)

Question: And the GI50 (KM20L2 (Colon) [10]; Homo sapiens, KM-20L2, KM20L2, 48 hours, SRB, read-out: GI50)?
Answer: 0.0017 µg/mL (≈ 0.0038 µM)

Question: And the “ED50 (effective dosage required to inhibit 50% of cell growth)” value (P388 leukemia cells; P388 leukemia cells)?
Answer: 0.0133 µg/mL

Question: Which results are given for COc1ccc(C(=O)c2cc(OC)c(OC)c(OC)c2)cc1O [Phenstatin, phenstatin]?
Answer: IC50 (purified tubulin [1]): 1000 ± 200 nM; GI50 (NCI-H460 (Lung-NSC) [2]): 0.0057 µg/mL (≈ 0.0179 µM); GI50 (OVCAR-3 (Ovarian) [3]): 0.0023 µg/mL (≈ 0.00723 µM); GI50 (SF-295 (CNS) [4]): 0.052 µg/mL (≈ 0.163 µM); GI50 (KM20L2 (Colon) [5]): 0.0004 µg/mL (≈ 0.00126 µM)

Question: What does the source list for COc1ccc(-c2c(C(=O)c3cc(OC)c(OC)c(OC)c3)oc3cc(OC)ccc23)cc1 [2-(3′,4′,5′-trimethoxybenzoyl)-3-(4′-methoxyphenyl)-6-methoxybenzo[b]furan, reference compound]?
Answer: GI50 (BXPC-3 (Pancreas-a); Homo sapiens, BXPC-3, Table I, read-out: GI50): 0.038 µg/mL (≈ 0.0847 µM); GI50 (SK-N-SH (Neuroblast)): 0.025 µg/mL (≈ 0.0557 µM); GI50 (SW1736 (Thyroid ca)): 0.047 µg/mL (≈ 0.105 µM); GI50 (NCI-H460 (Lung-NSC) [7]; Homo sapiens, NCI-H460, Table I, read-out: GI50): 0.041 µg/mL (≈ 0.0914 µM); GI50 (FADU (Pharynx-sqam)): 0.035 µg/mL (≈ 0.078 µM); GI50 (DU-145 (Prostate); Homo sapiens, DU-145, Table I, read-out: GI50): 0.062 µg/mL (≈ 0.138 µM)

Question: For COc1ccc(/C=C\c2cc(OC)c(OC)c(OC)c2)cc1N [Amine-CA-4 8], which IC50 (purified tubulin [6]; [11]) is on record?
Answer: 1200 ± 20 nM

Question: And the GI50 (NCI-H460 (Lung-NSC) [7]; Homo sapiens, NCI-H460, read-out: GI50)?
Answer: 0.00068 µg/mL (≈ 0.00216 µM)

Question: Which IC50 (purified tubulin [6]; [11]) does the source give for COc1ccc(-c2[nH]c3cc(OC)ccc3c2C(=O)c2cc(OC)c(OC)c(OC)c2)cc1 [3-(3′,4′,5′-trimethoxybenzoyl)-2-(4′-methoxyphenyl)-6-methoxyindole] here?
Answer: 500 to 1500 nM
